These results are taken from patent US20220204489A1, “ARYLSULFONYLTHIOPHENECARBOXAMIDES AND ARYLSULFONYLFURANCARBOXAMIDES AS Kv3 POTASSIUM CHANNEL ACTIVATORS” (H. Lundbeck A/S, priority 2019, published 2022).

This assay deals with T1, hKv3.1b (Homo sapiens, UniProt P48547).
T1 construct: expressed in transfected cells
T1 sequence (P48547 1-585 isoform P48547-2): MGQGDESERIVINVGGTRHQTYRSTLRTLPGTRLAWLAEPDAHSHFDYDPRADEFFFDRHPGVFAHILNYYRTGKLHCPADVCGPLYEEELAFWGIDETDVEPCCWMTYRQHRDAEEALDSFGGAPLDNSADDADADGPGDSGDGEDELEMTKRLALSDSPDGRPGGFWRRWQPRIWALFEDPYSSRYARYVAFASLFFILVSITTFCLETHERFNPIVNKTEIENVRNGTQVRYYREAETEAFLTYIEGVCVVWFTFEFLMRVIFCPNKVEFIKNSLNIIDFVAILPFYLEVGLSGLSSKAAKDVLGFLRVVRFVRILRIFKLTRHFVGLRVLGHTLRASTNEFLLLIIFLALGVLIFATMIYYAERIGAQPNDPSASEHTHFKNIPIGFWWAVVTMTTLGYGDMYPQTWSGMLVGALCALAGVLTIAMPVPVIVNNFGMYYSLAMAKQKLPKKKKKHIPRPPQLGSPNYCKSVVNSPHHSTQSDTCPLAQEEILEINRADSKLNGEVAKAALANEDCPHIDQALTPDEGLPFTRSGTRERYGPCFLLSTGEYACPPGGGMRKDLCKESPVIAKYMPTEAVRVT
Kind of assay: QPatch automated whole-cell patch-clamp, shift of voltage threshold for channel activation. To be noted: HEK-293 cells stably expressing hKv3.1b. In kind it is cell-based. The protocol:
HEK-293 cells stably expressing hKv3.1b was used for the experiments. Cells were cultured in DMEM medium supplemented with 10% Fetal Bovine Serum, 100 ug/mL Geneticidin and 100 u/mL Penicillin/Streptomycin (all from Gibco). Cells were grown to 80-90% confluency at 37° C. and 5% CO2. On the day of the experiment the cells were detached from the tissue culture flasks by Detachin and resuspended in serum free medium containing 25 mM HEPES and transferred to the cell hotel of the QPatch. The cells were used for experiments 0-5 hours after detachment.
Patch-clamp recordings were performed using the automated recording system QPatch-16× (Sophion Bioscience, Denmark). Cells were centrifuged, SFM removed and the cells were resuspended in extracellular buffer containing (in mM): 145 NaCl, 4 KCl, 1 MgCl2, 2 CaCl2, 10 HEPES and 10 glucose (added fresh on the day of experiment); pH 7.4 adjusted with NaOH, 305 mOsm adjusted with sucrose.
Single cell whole-cell recordings were carried out using an intracellular solution containing (in mM): 120 KCl, 32.25/10 KOH/EGTA, 5.374 CaCl2, 1.75 MgCl2, 10 HEPES, 4 Na2ATP (added fresh on the day), pH 7.2 adjusted with KOH, 395 mOsm adjusted with sucrose. Cell membrane potentials were held at −80 mV and currents were evoked by voltage steps (200 ms duration) from −70 mV to +10 mV (in 10 mV increments). Vehicle (0.33% DMSO) or increasing concentration of compound (1) were applied and the voltage protocol was run 3 times (resulting in 3 min cpd incubation time). Five increasing concentrations of compound (1) were applied to each cell.
Leak subtraction protocol was applied at −33% of the sweep amplitude, and serial resistance values were constantly monitored.
Any cell where serial resistance exceeded 25 MOhm, membrane resistance less than 200 MOhm or current size at −10 mV less than 200 pA was eliminated from the subsequent analysis.
Data analysis was performed using Sophion's QPatch assay software in combination with Microsoft Excel™ (Redmond, Wash., USA).
Current voltage relationships were plotted from the peak current at the individual voltage steps normalized to the vehicle addition at 10 mV. The voltage threshold for channel activation was defined as 5% activation of the peak current at 10 mV in presence of vehicle. The activity of the compounds was described as the ability to shift this current voltage relationship to more hyperpolarized potentials and is given as the maximum absolute shift possible at the tested concentrations (0.37, 1.11, 3.33, 10, 30 μM). Concentration response curves were plotted from the threshold shift at the individual concentrations and were fitted excel fit model 205 sigmodal dose-response model (fit=A+((B−A)/1+((C/x)^D)))), where A is the minimum value, B the maximum value, C the EC50 value and D the slope of the curve. The concentration needed to shift the threshold 5 mV was readout from this curve (ECdelta5 mV).

For the molecule `COc1ccc(S(=O)(=O)c2ccc(C(=O)NCc3cnc(C)cn3)s2)cc1` [Compound 16, 5-(4-methoxybenzene-1-sulfonyl)-N-[(5-methylpyrazin-2-yl)methyl]thiophene-2-carboxamide], the ECdelta5mV (concentration needed to shift the threshold 5 mV, read from fitted concentration response curve) was 1500 nM. The Max threshold shift (maximum absolute shift of activation threshold to more hyperpolarized potentials at tested concentrations (0.37, 1.11, 3.33, 10, 30 μM)) is on record as 24 mV.
